{"source": "patent US20220186210A1", "about": "“METHOD FOR I[…]” (priority 2019, published 2022)", "key": {"[1]": {"system": "HeLa cell clones with PSMB5 point mutations", "experiment": "Cell viability assay of single clones with PSMB5 point mutations", "format": "cell-based", "conditions": "single clones with PSMB5 R78N, V9OL, A108T, C122F, G242D; FIG. 9E", "procedure": "Cells were seeded in 96-well plates 24 hour before drug or toxin treatment (5,000 cells for diphtheria toxin (DT) and 3,000 cells for bortezomib), and different concentrations of bortezomib or DT were added. Cells were incubated at 37° C. for 48 hour (DT) or 72 hour (bortezomib) before the addition of 1 mg/ml of MTT (3-[4,5 -dimethylthiazol-2-yl]-2,5 -diphenyltetrazolium bromide). Spectrophotometer readings at 570 nm were collected using BioTek Cytation5 (BioTek Instruments).\n(§1) Because missense point mutations were the predominant formats conferring drug resistance for both PSMB5 and PLK1, we decided to employ ssODN-mediated method^(24) to create specific point mutations instead of deletions for validation. We selected nine amino acid residues (R78, T80, V90, M104, A108, D110, C111, C122 and G242) in PSMB5, among which D110 and C111 were included as controls. To choose a proper amino acid for point mutation, the mutant types from screening results or previous reports were preferential choices. For the rest, we made all the substitution to alanine (Table 2). […] It remains to be determined how V90 mediates drug sensitivity and whether V90 alteration changes the structure around Bortezomib binding pocket."}, "[2]": {"system": "HeLa cells with PSMB5 point mutations", "experiment": "Pooled ssODN point-mutation validation, Bortezomib resistant colonies (MTT viability)", "format": "cell-based", "conditions": "bortezomib 8 ng/ml, 72 hour, FIG. 9D", "procedure": "For the validation of critical mutations of PSMB5 and PLK1, sgRNAs were designed near the mutation site, and each 119 nt ssODN donor encoded one amino acid substitution for a validated residue. All sgRNAs (sgRNA sequences for the validation of critical mutations) and ssODN donor sequences (ssODN donors encoded one amino acid substitution for a validated residue) are listed in Table 2 as follows.\nHeLa cells were transfected with 1 μg of sgRNA and 2 μg of the ssODN donor in six-well plates. Fourteen days after transfection, 1.5×10^5 cells were seeded in six-well plates 24 hour before drug selection. […] The genomes of drug-resistant cells were extracted using the TIANamp Genomic DNA Kit (TIANGEN).\nas §1, with “choices.” for “choices. For the rest, we made all the substitution to alanine (Table 2).”"}}, "data": [{"smiles": "CC(C)C[C@H](NC(=O)[C@H](Cc1ccccc1)NC(=O)c1cnccn1)B(O)O", "note": "[Bortezomib]", "values": [{"measurement": "cell susceptibility to Bortezomib", "setting": "[1]", "result": "conferred Bortezomib resistance"}, {"measurement": "Bortezomib resistant colonies", "setting": "[2]; PSMB5 control mutations D110A and C111A", "result": "failed to produce Bortezomib resistant colonies"}, {"measurement": "Bortezomib resistant colonies", "setting": "[2]; PSMB5 mutations R78N, T80A, V90A, M104A, A108T, C122F, G242D", "result": "produced variable number of Bortezomib resistant colonies"}]}]}
